Results taken from paper PMC11129195, “Novel Re(I) Complexes as Potential Selective Theranostic Agents in Cancer Cells and In Vivo in Caenorhabditis elegans Tumoral Strains” (Journal of Medicinal Chemistry, 2024).

Tests used:
C. elegans strain JK1466 = system: C. elegans strain JK1466; set-up: method as in earlier work; settings: ref "Recent studies"; cited from earlier work
A2780 = assay: MTT antiproliferative activity in A2780 cells; assay type: cell-based, human; settings: MTT test, 48 h of treatment
Description: (§1) Human ovarian carcinoma cell lines (A2780) were cultured in RPMI-1640 medium, while the human cervix adenocarcinoma cell line (HeLa), tumor breast cancer cell line, and nontumorigenic buffalo green monkey cells (BGM) were cultured in DMEM and EMEM (containing nonessential amino acids) medium. The cell culture media were supplemented with 10% fetal bovine serum (FBS), 1% L-glutamine, and 1% penicillin/streptomycin. The cells were maintained in a humidified incubator at 37 °C with a 5% CO2 atmosphere and subcultured 2–3 times a week, each with an appropriate density for its specific cell line. Prior to the experiments, the cell lines were confirmed to be free from mycoplasma contamination using Hoechst DNA staining standard procedures. During cell-based assays, the maximum amount of dimethyl sulfoxide (DMSO) added as a solvent for treatment was limited to 0.4% (v/v) to avoid any potential vehicle-induced toxicity to the cells. Cells were cultured in 96-well plates and allowed to reach confluence. The tested compounds were dissolved in DMSO at a maximum concentration of 0.4% (v/v) and immediately diluted with fresh media. The cells were then incubated with varying concentrations of the Re1–Re9 for 48 h at 37 °C. […] The absorbance at 570 nm was measured using a microplate reader (FLUOstar Omega).

A2780 cells [1] = assay: Annexin V-FITC/PI dual staining, flow cytometry; assay type: cell-based, human; settings: 10 μM, 24 h
Description: The annexin V/PI assay was performed following the instructions provided by the manufacturer (Roche). A2780 cells were seeded in 12-well plates at a density of 3 × 10^5 cells/well and incubated overnight. […] After the treatment, the cells were collected and stained with annexin V and PI, following the procedure mentioned earlier. The staining was carried out at room temperature for 15 min in the absence of light, and the samples were immediately analyzed using flow cytometry (FACSCalibur Beckton Dickinson) with an excitation wavelength of 488 nm. The absorbance at 488 nm of compound Re9 was considered negligible. The data obtained from the assay were analyzed using FlowJo Software (TreeStar).

C. elegans strain MT2124 = assay type: in vivo, Caenorhabditis elegans
From the text: Caenorhabditis elegans strains JK1466 [gld-1(q485)/dpy-5(e61) unc-13(e51)] and MT2124 [let-60(n1046)] were kindly donated by the Caenorhabditis Genetic Center (CGC, Saint Paul, Minnesota, United States), which is funded by the “NIH Office of Research Infrastructure Programs” (P40 OD010440). The strains were maintained and cultured following the protocols established by Stiernagle.[78]−[80] Synchronous cohorts of C. elegans prepared using the bleach method were used in all the assays.
MT2124 (Muv phenotype) L1 larvae were incubated for 72 h at 20 °C in S basal medium with different concentrations of Re9 (0.1–150 μM) supplemented with E. coli OP50. Antitumoral evaluation was performed following the protocol described by Medina and coauthors with modifications.[81] Ten microliters of a suspension containing young adult nematodes were place in a microscope slide along with 10 μL of sodium azide to reduce its movement. Images of whole worms were taken at 10× magnification using the bright-field microscope. The animals were classified as multivulva (MT) if they had more than one vulva protruding from the […] (Figure 12B) or wild-type if they only had one (WT). Then, the percentage of multivulva animals were calculated with eq 1. [drawing 1] 1
Additionally, the number of vulvas of the multivulva animals were counted. Two independent assays were performed with n ≥ 25 and the statistical significance was estimated by the ANOVA test.

A2780 cells [2] = assay: Scanning electron microscopy of cell morphology; assay type: cell-based, human; settings: A2780, 24 h
Description: A2780 cells were treated with CDDP and Re9 for 24 h. Cells then were fixed with 4% PFA fix solution for 30 min and washed with PBS three times. Sample were dehydrated through a graded series of ethanol (30, 50, 70, 95, and 100%), dried by the tertiary butanol method, and then imaged with a SEM operating at 20.0 kV.

A2780 cells [3] = assay: DNA damage by pH2AX staining, flow cytometry; assay type: cell-based, human; settings: A2780, 24 h
Description: DNA damage was evaluated by flow cytometry in A2780 cells. […] Cells were then collected by trypsinization, washed with PBS, and fixed in 200 μL 0.2% PFA for 5 min. After fixation, cells were pelleted, suspended in a 3% FBS solution containing anti phospho-H2AX ([…]) FITC-conjugated monoclonal antibody (CR55T33, eBioscience) at a concentration of 0.6 μg/mL, and incubated for 2 h at room temperature in the dark. Analysis of stained cells was carried out using a Becton Dickinson FACSCalibur flow cytometer with 10,000 acquisitions per sample, registering the FL1-H channel (λexc = 488 nm). Two independent experiments, each with n = 2, were conducted.

BGM = assay: MTT test in nontumorigenic BGM cells; assay type: cell-based, buffalo green monkey; settings: 48 h of treatment, normal cells
Description: as §1

wild-type C. elegans = system: wild-type C. elegans; set-up: method as in PMID 29752286; settings: 100 μM, cited from earlier work
HeLa = assay: MTT antiproliferative activity in HeLa cells; assay type: cell-based, human; settings: MTT test, 48 h of treatment
Description: as §1

A2780 cells [4] = assay: Mitochondrial membrane potential, JC-1 staining; assay type: cell-based, human; settings: Re9 1.25 and 2.5 μM, 24 h, antimycin A 6 h
Description: After the treatment period, the cells were collected and resuspended in prewarmed PBS containing JC-1 (1 μM). The cell suspension was then incubated for 30 min at 37 °C. Following the incubation, the cells were washed twice with PBS and immediately analyzed using a flow cytometer (FACSCAlibur Beckton Dickinson). Fluorescence measurements were performed by detecting both the monomeric (emission at 530 ± 30 nm; green) and aggregated (emission at 585 ± 30 nm; red) forms of JC-1 upon excitation at 488 nm. For each sample, a total of 10,000 events were acquired during the analysis.

| Structure (SMILES) | reduction of tumor size (C. elegans strain JK1466) [%] | IC50 (A2780) [µM] | Q2 cells (annexin V+/PI+, late apoptotic or pyroptotic) (A2780 cells [1]) [%] | Q3 cells (annexin V+/PI–, early apoptotic) (A2780 cells [1]) [%] | reduction of MT phenotypic incidence (C. elegans strain MT2124; 50 μM) [%] | reduction of the number of vulvas (C. elegans strain MT2124; 50 μM) [%] | MT (multivulva animals) (C. elegans strain MT2124; 50 μM, 72 h) [%] | WT (wild-type nematodes) (C. elegans strain MT2124; 50 μM, 72 h) [%] | n° vulvas (C. elegans strain MT2124; 50 μM, multivulva phenotype nematodes) | effect of concentrations above 50 μM on the nematodes (C. elegans strain MT2124; in vivo) | cell death type from SEM morphology (A2780 cells [2]) | DNA damage (pH2AX staining) (A2780 cells [3]) | IC50 (BGM) [µM] | progeny, share of the expected brood (wild-type C. elegans; L4 animals) [%] | reduction of animal size (wild-type C. elegans; wild-type larvae, 48 h) [%] | development stage (wild-type C. elegans; wild-type, 48 h) | IC50 (HeLa) [µM] | mitochondrial membrane potential (MMP) levels (A2780 cells [4]) |
| --- | --- | --- | --- | --- | --- | --- | --- | --- | --- | --- | --- | --- | --- | --- | --- | --- | --- | --- |
| N.N.[Cl][Pt][Cl] [cisplatin] | 48 | 2.9 ± 0.4 | 16.9 | 13.8 | 58.2 | 52 | 34.62 | 65.38 | 1.40 | developmental arrest | apoptosis | significantly contributed to the induction of DNA damage | 6.8 ± 0.9 | 10 | 75 | L2 stage | 23.3 ± 2 |  |
| CCCCCC[C@H]1C(=O)O[C@H](C)[C@H](NC(=O)c2cccc(NC=O)c2O)C(=O)O[C@@H](C)[C@@H]1OC(=O)CC(C)C [antimycin A, Antimycin A] |  |  |  |  |  |  |  |  |  |  |  |  |  |  |  |  |  | significant decrease in MMP levels |
